Data as given in ChEMBL document CHEMBL5385913, “First-in-Class Dual EZH2-HSP90 Inhibitor Eliciting Striking Antiglioblastoma Activity In Vitro and In Vivo” (J Med Chem, 2024).
Calls of active or inactive are those of the source. The calls are words filed in the database; no cut-off is given here.

What was measured:
GBM [1] = experiment: Downregulation of spindle-related gene expression in TMZ-resistant patient-derived human GBM cells; assay type: functional, cell-based
GBM [2] = experiment: Effect on homologous recombination in TMZ-resistant patient-derived human GBM cells assessed as fold decrease in PSMC3IP gene expression at 2 uM (reference value: 2.71); assay type: functional
GBM [3] = experiment: Effect on homologous recombination in TMZ-resistant patient-derived human GBM cells assessed as fold decrease in MSH5 gene expression at 2 uM (reference value: 1.52); assay type: functional
GBM [4] = experiment: Induction of ROS production in patient-derived human GBM cells assessed as decrease in SOD1 level upto 10 uM measured after 48 hrs by Western blot analysis; assay type: functional, cell-based
[5] = Downregulation of CENPM level in TMZ-resistant patient-derived human GBM cells assessed as fold change at 2 uM by GlioVis analysis (reference value: 2.23); assay type: functional
[6] = Downregulation of CENPO level in TMZ-resistant patient-derived human GBM cells assessed as fold change at 2 uM by GlioVis analysis (reference value: 2.67); assay type: functional
GBM [7] = experiment: Downregulation of CENPA level in TMZ-resistant patient-derived human GBM cells upto 5 uM incubated for 48 to 72 hrs by Western blot analysis; assay type: functional, cell-based; conditions: time 48-72 hrs
GBM [8] = experiment: Upregulation of ZYX gene expression in TMZ-resistant patient-derived human GBM cells by KEGG analysis; assay type: functional, cell-based
GBM [9] = experiment: Downregulation of CENPE level in TMZ-resistant patient-derived human GBM cells upto 5 uM incubated for 48 to 72 hrs by Western blot analysis; assay type: functional, cell-based; conditions: time 48-72 hrs
GBM [10] = experiment: Effect on homologous recombination in TMZ-resistant patient-derived human GBM cells assessed as fold decrease in BLM gene expression at 2 uM (reference value: 3.55); assay type: functional
[11] = Downregulation of CENPK level in TMZ-resistant patient-derived human GBM cells assessed as fold change at 2 uM by GlioVis analysis (reference value: 3.71); assay type: functional
GBM [12] = experiment: Downregulation of RPL35 gene expression in TMZ-resistant patient-derived human GBM cells by KEGG analysis; assay type: functional, cell-based
GBM [13] = experiment: Upregulation of necrosis-related gene expression in TMZ-resistant patient-derived human GBM cells; assay type: functional, cell-based
GBM [14] = experiment: Downregulation of PCBP1 gene expression in TMZ-resistant patient-derived human GBM cells by KEGG analysis; assay type: functional, cell-based
[15] = Downregulation of NASP level in TMZ-resistant patient-derived human GBM cells assessed as fold change at 2 uM by GlioVis analysis (reference value: 5.08); assay type: functional
GBM [16] = experiment: Effect on homologous recombination in TMZ-resistant patient-derived human GBM cells assessed as fold decrease in HDAC10 gene expression at 2 uM (reference value: 0.53); assay type: functional
GBM [17] = experiment: Upregulation of CTNNB1 gene expression in TMZ-resistant patient-derived human GBM cells by KEGG analysis; assay type: functional, cell-based
GBM [18] = experiment: Suppression of DNA repair in TMZ-resistant patient-derived human GBM cells by GSEA analysis; assay type: functional, cell-based
GBM [19] = experiment: Induction of ROS production in TMZ-resistant patient-derived human GBM cells assessed as decrease in SOD1 level upto 10 uM measured after 48 hrs by Western blot analysis; assay type: functional, cell-based
[20] = Downregulation of CENPA level in TMZ-resistant patient-derived human GBM cells assessed as fold change at 2 uM by GlioVis analysis (reference value: 3.64); assay type: functional
GBM [21] = experiment: Induction of ROS production in TMZ-resistant patient-derived human GBM cells measured after 48 hrs by DHR staining based flow cytometry; assay type: functional, cell-based
GBM [22] = experiment: Downregulation of cyclin B level in TMZ-resistant patient-derived human GBM cells upto 5 uM incubated for 48 to 72 hrs by Western blot analysis; assay type: functional, cell-based; conditions: time 48-72 hrs
GBM [23] = experiment: Induction of ROS production in patient-derived human GBM cells assessed as decrease in GPX1 level upto 10 uM measured after 48 hrs by Western blot analysis; assay type: functional, cell-based
GBM [24] = experiment: Inhibition of cell proliferation in TMZ-resistant patient-derived human GBM cells at 2 uM incubated for 48 hrs; assay type: functional, cell-based
GBM [25] = experiment: Effect on homologous recombination in TMZ-resistant patient-derived human GBM cells assessed as fold decrease in MND1 gene expression at 2 uM (reference value: 2.95); assay type: functional
GBM [26] = experiment: Upregulation of HSPA4 gene expression in TMZ-resistant patient-derived human GBM cells by KEGG analysis; assay type: functional, cell-based
GBM [27] = experiment: Upregulation of HSPA8 gene expression in TMZ-resistant patient-derived human GBM cells by KEGG analysis; assay type: functional, cell-based
GBM [28] = experiment: Effect on homologous recombination in TMZ-resistant patient-derived human GBM cells assessed as fold decrease in FANCM gene expression at 2 uM (reference value: 2.59); assay type: functional
GBM [29] = experiment: Antitumor activity against TMZ-resistant patient-derived human GBM cells xenografted in NOD.CB17-Prkdcscid/NCrCrl mouse assessed as reduction in tumor growth at 20 mg/kg, ip treated twice per week; assay type: functional, organism-based
GBM [30] = experiment: Upregulation of EHD1 gene expression in TMZ-resistant patient-derived human GBM cells by KEGG analysis; assay type: functional, cell-based
[31] = Downregulation of CENPI level in TMZ-resistant patient-derived human GBM cells assessed as fold change at 2 uM by GlioVis analysis (reference value: 3.46); assay type: functional
[32] = biological target: Histone-lysine N-methyltransferase EZH2 (Homo sapiens) (UniProt Q15910); experiment: Inhibition of EZH2-mediated H3K27 trimethylation in patient-derived human GBM cells upto 10 uM measured after 48 hrs by Western blot analysis; assay type: cell-based
[33] = Downregulation of MIS18BP1 level in TMZ-resistant patient-derived human GBM cells assessed as fold change at 2 uM by GlioVis analysis (reference value: 3.87); assay type: functional
[34] = Downregulation of CENPU level in TMZ-resistant patient-derived human GBM cells assessed as fold change at 2 uM by GlioVis analysis (reference value: 3.88); assay type: functional
GBM [35] = experiment: Downregulation of YWHAG gene expression in TMZ-resistant patient-derived human GBM cells by KEGG analysis; assay type: functional, cell-based
GBM [36] = experiment: Induction of cell cycle arrest in TMZ-resistant patient-derived human GBM cells at 1 uM incubated for 24 to 72 hrs by PI staining based flow cytometry; assay type: functional; conditions: time 24-72 hrs
[37] = Downregulation of CENPO level in TMZ-resistant patient-derived human GBM cells assessed as fold change at 2 uM by GlioVis analysis (reference value: 3.12); assay type: functional
GBM [38] = experiment: Induction of ROS production in TMZ-resistant patient-derived human GBM cells assessed as increase in cleaved caspase-3 level upto 5 uM measured for 48 hrs by Western blot analysis; assay type: functional, cell-based
GBM [39] = experiment: Effect on homologous recombination in TMZ-resistant patient-derived human GBM cells assessed as fold decrease in TOP2A gene expression at 2 uM (reference value: 6.78); assay type: functional

Histone-lysine N-methyltransferase EZH2 (Homo sapiens), sequence (Q15910 whole entry, looked up): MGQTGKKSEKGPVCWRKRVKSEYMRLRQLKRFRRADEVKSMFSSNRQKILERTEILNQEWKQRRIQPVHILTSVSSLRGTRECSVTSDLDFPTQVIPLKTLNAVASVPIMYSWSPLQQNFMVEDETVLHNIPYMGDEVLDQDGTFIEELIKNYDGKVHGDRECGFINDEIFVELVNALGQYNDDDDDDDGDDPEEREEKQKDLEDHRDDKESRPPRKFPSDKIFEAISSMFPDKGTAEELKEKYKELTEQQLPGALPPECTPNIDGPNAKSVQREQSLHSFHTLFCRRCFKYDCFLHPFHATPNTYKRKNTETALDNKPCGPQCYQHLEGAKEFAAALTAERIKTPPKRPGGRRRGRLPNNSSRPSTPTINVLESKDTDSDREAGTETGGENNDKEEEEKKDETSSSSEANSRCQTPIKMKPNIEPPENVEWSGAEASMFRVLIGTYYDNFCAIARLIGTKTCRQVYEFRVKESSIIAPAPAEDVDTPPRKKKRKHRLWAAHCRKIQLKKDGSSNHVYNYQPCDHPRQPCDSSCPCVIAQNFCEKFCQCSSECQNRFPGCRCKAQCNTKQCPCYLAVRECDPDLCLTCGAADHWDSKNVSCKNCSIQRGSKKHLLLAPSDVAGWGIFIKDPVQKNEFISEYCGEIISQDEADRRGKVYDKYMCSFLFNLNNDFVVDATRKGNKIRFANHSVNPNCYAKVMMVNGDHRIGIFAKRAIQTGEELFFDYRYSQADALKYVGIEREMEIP

SMILES: CCN(c1cc(-c2cccc(N(C)C(=O)c3cc(C(C)C)c(O)cc3O)c2)cc(C(=O)NCc2c(C)cc(C)[nH]c2=O)c1C)C1CCOCC1
- Activity (GBM [1]): Active
- fold change (FC) (GBM [2]): 1.17
- fold change (FC) (GBM [3]): 0.44
- Activity (GBM [4]): Active
- fold change (FC) [5]: 0.48
- fold change (FC) [6]: 1.53
- Activity (GBM [7]): Active
- Activity (GBM [8]): Active
- Activity (GBM [9]): Active
- fold change (FC) (GBM [10]): 0.72
- fold change (FC) [11]: 1.33
- Activity (GBM [12]): Active
- Activity (GBM [13]): Active
- Activity (GBM [14]): Active
- fold change (FC) [15]: 3.41
- fold change (FC) (GBM [16]): 0.17
- Activity (GBM [17]): Active
- Activity (GBM [18]): Active
- Activity (GBM [19]): Active
- fold change (FC) [20]: 0.81
- Activity (GBM [21]): Active
- Activity (GBM [22]): Active
- Activity (GBM [23]): Active
- inhibition (GBM [24]): Active
- fold change (FC) (GBM [25]): 0.36
- Activity (GBM [26]): Active
- Activity (GBM [27]): Active
- fold change (FC) (GBM [28]): 1.77
- Activity (GBM [29]): Active
- Activity (GBM [30]): Active
- fold change (FC) [31]: 1.14
- inhibition [32]: Active
- fold change (FC) [33]: 2.43
- fold change (FC) [34]: 1.46
- Activity (GBM [35]): Active
- Activity (GBM [36]): Active
- fold change (FC) [37]: 1.84
- Activity (GBM [38]): Active
- fold change (FC) (GBM [39]): 2.68
